Measurements reported in patent US4324801A, “Phenylguanidine acetylsalicylate compounds, process for production thereof, and pharmaceutical composition thereof” (Banyu Pharmaceutical Co. Ltd., priority 1981, dated 1982).
≈ marks a conversion by molar mass, not a printed value. Where two headings read alike, the source gives them in different places.

Experiments:
guinea pigs = assay: Anti-inflammatory activity (ultraviolet irradiation on the back of guinea pigs); assay type: in vivo, guinea pig (male)
Description: Male guinea pigs having a body weight of about 350 g were used. The back hair of each guinea pig was removed, and ultraviolet light was irradiated onto the back.

[1] = system: platelet aggregation in rabbit's platelet-rich plasma (PRP); assay: cells; assay type: cell-based; conditions: collagen as aggregation inducer; for IC50: Oryctolagus cuniculus, Platelet, read-out: IC50 (final concentration at 50% inhibition of platelet aggregation)
Protocol: This was measured by the method of Born et al. Specifically, using collagen as an aggregation inducer, each of the compounds shown in Table 1 was tested to measure the inhibition of platelet aggregation in rabbit's platelet-rich plasma (PRP). Aspirin and mefenamic acid were used as controls.
^(*) Final concentration at 50% inhibition of platelet aggregation.

prostaglandin synthesis = assay: Inhibition of prostaglandin synthesis in washed platelet suspension (malondialdehyde formation after arachidonic acid); assay type: cell-based; conditions: in vitro; for IC50: read-out: IC50 (final concentration at 50% inhibition of malondialdehyde formation)
Protocol: Each of the compounds shown in Table 1 was tested to measure the inhibition of prostaglandin synthesis in a washed platelet suspension by measuring the malondialdehyde formation following the addition of arachidonic acid in vitro.

rats = assay: Antipyretic activity (peptone-induced rise in rectal temperature); assay type: in vivo, rat (male); conditions: against the control, oral, 200 mg/kg, rat; 5% peponte s.c. (0.5 ml/100 g)
Description: Male rats having a body weight of 200 to 250 g were used.
^(*) Inhibiting ratio against the control in oral administration at a

mice [2] = conditions: oral
mice [3] = assay: Analgesic activity (acetic acid writhing method); assay type: in vivo, mouse (male); conditions: oral, intravenous, intraperitoneal, compared against aspirin and mefenamic acid, writhings counted 5 to 25 minutes after acetic acid
Protocol: The analgesic activity was tested by the acetic acid writhing method. Male mice having a body weight of 18 to 20 g were used. Each of the compounds shown in Table 1 was administered orally, intravenously and intraperitoneally, and then 0.2 ml of a 0.7% aqueous solution of acetic acid was administered intraperitoneally 60 minutes (in oral administration), 10 minutes (in intravenous administration), and 15 minutes (in intraperitoneal administration) after the administration of the test compounds.

in vivo = conditions: mouse, po
[4] = oral, one hour before UV irradiation, guinea pigs

Molecule | ED50 (guinea pigs; [4]) [mg/kg] | IC50 (final concentration at 50% inhibition of platelet aggregation) [1] [µg/mL] | IC50 (final concentration at 50% inhibition of malondialdehyde formation) (prostaglandin synthesis) [µg/mL] | Inhibiting ratio (rats) [%] | LD50 (mice [2]) [mg/kg] | analgesic activity (mice [3]) | ED50 (guinea pigs; Cavia porcellus, light or radiation study, po, 1 h) [mg/kg] | IC50 [1] [µg/mL] | IC50 (prostaglandin synthesis) [µg/mL] | LD50 (in vivo) [mg/kg] | ED50 (guinea pigs; Cavia porcellus, light or radiation study, 1 h, oral, one hour before UV irradiation, guinea pigs, read-out: ED50) [mg/kg]
2-methylphenylguanidine acetylsalicylate [Compound 2] | 65 | 10.5 | 3.4 | 88.1 | 400 | – | – | – | – | – | –
3,4-dimethylphenylguanidine acetylsalicylate [Compound 5] | 85 | 2.0 | 4.8 | – | – | a marked analgesic activity | – | – | – | – | –
3-Hydroxy-4-carboethoxyphenylguanidine acetylsalicylate [Compound 17] | – | – | – | – | 1100 | – | – | – | – | – | –
3-methylphenylguanidine acetylsalicylate [Compound 3] | 110 | 7.0 | 3.7 | 28.0 | 400 | – | – | – | – | – | –
4-Carbamoylphenylguanidine acetylsalicylate [Compound 16] | 200 | 12.5 | 4.5 | 72.0 | 1600 | – | – | – | – | – | –
4-Methoxyphenylguanidine acetylsalicylate [Compound 11] | 95 | 9.6 | 3.3 | 25.2 | 300 | – | – | – | – | – | –
4-ethoxyphenylguanidine acetylsalicylate [Compound 13] | 85 | 12.2 | 4.0 | 62.9 | 600 | – | – | – | – | – | –
4-methylphenylguanidine acetylsalicylate [Compound 4] | 90 | 4.5 | 2.4 | 83.9 | 600 | – | – | – | – | – | –
CC(=O)Oc1ccccc1C(=O)O [Aspirin, acetylsalicylic acid, reference compound] | – | – | – | 81.0 | – | – | 90 | 12.6 (≈ 69.9 µM) | 2.4 (≈ 13.3 µM) | 950 | –
CC(=O)Oc1ccccc1C(=O)O.N=C(N)Nc1ccccc1 [Compound 1] | 140 | 6.0 | 4.3 | 74.1 | 400 | – | – | – | – | – | –
Cc1cccc(Nc2ccccc2C(=O)O)c1C [Mefenamic acid, reference compound] | – | – | – | – | – | – | – | > 20 | 1.4 (≈ 5.8 µM) | – | 30
